The source made the active and inactive calls.
What was measured:
[1] = target: 5-hydroxytryptamine receptor 5A (Homo sapiens, UniProt P47898); experiment: Counterscreen for agonists of OPRM1-OPRD1 heterodimerization: luminescence-based cell-based high throughput dose response assay to identify agonists of 5-hydroxytryptamine (serotonin) 5A receptor (HTR5A). [Related pubchem assays (depositor defined):AID504326, AID504355, AID504692, AID504904, AID504905]; assay type: functional
[2] = target: Mu-type opioid receptor (Homo sapiens, UniProt P35372); experiment: Counterscreen for agonists of heterodimerization of the mu 1 (OPRM1) and delta 1 (OPRD1) opioid receptors: Luminescence-based cell-based high throughput dose response assay to identify agonists of OPRM1 homodimerization.; assay type: functional;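 note: U2OS cells expressing OPRM1 and beta-arrestin as split beta-galactosidase partners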
Mu-type opioid receptor, sequence (P35372 whole entry): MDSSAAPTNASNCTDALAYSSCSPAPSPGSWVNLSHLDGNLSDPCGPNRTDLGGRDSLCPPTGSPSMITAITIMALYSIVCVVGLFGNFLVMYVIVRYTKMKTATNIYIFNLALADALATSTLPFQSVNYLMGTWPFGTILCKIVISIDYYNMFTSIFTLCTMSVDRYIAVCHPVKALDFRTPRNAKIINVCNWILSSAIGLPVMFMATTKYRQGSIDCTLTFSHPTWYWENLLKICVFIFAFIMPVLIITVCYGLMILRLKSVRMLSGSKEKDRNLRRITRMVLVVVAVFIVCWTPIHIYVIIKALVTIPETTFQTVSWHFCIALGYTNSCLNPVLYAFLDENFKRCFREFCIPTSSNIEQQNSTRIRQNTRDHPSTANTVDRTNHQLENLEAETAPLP

[3] = target: Delta-type opioid receptor (Homo sapiens, UniProt P41143); experiment: Counterscreen for agonists of heterodimerization of the mu 1 (OPRM1) and delta 1 (OPRD1) opioid receptors: Luminescence-based cell-based high throughput dose response assay to identify agonists of OPRD1 homodimerization. [Related pubchem assays (depositor defined):AID504326, AID504355, AID504692, AID504904, AID504905]; assay type: functional
Delta-type opioid receptor, sequence (P41143 whole entry): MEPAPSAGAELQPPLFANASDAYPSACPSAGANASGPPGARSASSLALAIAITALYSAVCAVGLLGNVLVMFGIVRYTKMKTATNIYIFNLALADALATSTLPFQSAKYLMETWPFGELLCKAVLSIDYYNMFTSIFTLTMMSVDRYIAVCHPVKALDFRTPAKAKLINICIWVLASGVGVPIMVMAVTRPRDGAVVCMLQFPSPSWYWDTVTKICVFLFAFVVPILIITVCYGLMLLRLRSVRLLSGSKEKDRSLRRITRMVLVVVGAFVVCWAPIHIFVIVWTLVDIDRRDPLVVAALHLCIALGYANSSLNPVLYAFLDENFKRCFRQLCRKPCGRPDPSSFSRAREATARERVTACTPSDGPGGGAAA

[4] = HepG2 cell cytotoxicity, dose response, cytotoxicity control, ATP luminescence, cherry-pick, activator set 2 (AID 1053143); assay type: functional, cell-based
[5] = Luminescence Cell-Based Dose Retest to Confirm Inhibitors of Cancer Stem Cells. [Related pubchem assays (depositor defined):AID2717, AID2721]; assay type: functional; conditions: Homo sapiens
[6] = test system: H4; experiment: Luminescence Cell-Based Dose Response HTS to Identify Activators of 5'UTR Stem-Loop Driven Prion Protein mRNA Translation in H4 Neuroglioblastoma Cells. [Related pubchem assays: 1829 (Project Summary), 1814 (Primary HTS)]; assay type: functional; conditions: Homo sapiens
[7] = cytotoxicity in HMLE control line with eGFP shRNA, dose response, counter-screen for HMLE_sh_ECad selective toxicity project, cell-based, HMLE_sh_eGFP, luminescence (AID 463074); assay type: functional, Homo sapiens;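 note: HMLE human mammary epithelial cells expressing control shRNA against eGFP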
[8] = Luminescence Cell-Based Dose Response HTS to Identify Activators of Luciferase Translation or Activity in H4 […] Cells. [Related pubchem assays: 1829 (Project Summary), 1814 (Primary HTS)]; assay type: functional
[9] = test system: CHO-K1; experiment: Counterscreen for antagonists of the orexin 1 receptor (OX1R; HCRTR1): Homogeneous time resolved fluorescence (HTRF)-based cell-based dose response assay to identify antagonists of the parental CHO-K1 cell line. [Related pubchem assays (depositor defined):AID434989, AID435008, AID463079, AID485270, AID492963, AID492964, AID492965, AID493232, AID504699, AID504701]; assay type: functional; conditions: Cricetulus griseus;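 note: potency for inhibition of ATP-stimulated IP1 production as antagonists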
[10] = target: T1, Orexin/Hypocretin receptor type 1 (Homo sapiens, UniProt O43613); experiment: Fluorescence-based cell-based high throughput dose response assay for antagonists of the orexin 1 receptor (OX1R; HCRTR1). [Related pubchem assays (depositor defined):AID434989, AID435008, AID463079, AID485270, AID492963, AID492964, AID492965, AID493232, AID504717, AID504718]; assay type: functional
T1 sequence (O43613 whole entry): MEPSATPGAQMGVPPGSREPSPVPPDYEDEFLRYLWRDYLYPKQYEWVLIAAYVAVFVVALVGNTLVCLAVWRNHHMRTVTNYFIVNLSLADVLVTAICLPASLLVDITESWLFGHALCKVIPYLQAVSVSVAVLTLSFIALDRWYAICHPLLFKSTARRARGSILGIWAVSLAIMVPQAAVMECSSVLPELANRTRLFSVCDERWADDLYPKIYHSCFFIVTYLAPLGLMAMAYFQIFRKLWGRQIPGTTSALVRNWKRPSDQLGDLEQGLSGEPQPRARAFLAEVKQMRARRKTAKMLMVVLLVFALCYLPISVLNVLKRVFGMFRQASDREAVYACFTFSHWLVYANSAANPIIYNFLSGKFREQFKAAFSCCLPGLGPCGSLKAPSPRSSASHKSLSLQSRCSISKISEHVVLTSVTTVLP

[11] = target: T1, Orexin/Hypocretin receptor type 1; experiment: Homogeneous Time Resolved Fluorescence (HTRF)-based cell-based high throughput dose response assay for antagonists of the orexin 1 receptor (OX1R; HCRTR1). [Related pubchem assays (depositor defined):AID434989, AID435008, AID463079, AID485270, AID492963, AID492964, AID492965, AID493232, AID504717, AID504718]; assay type: functional
[12] = Counterscreen for antagonists of the orexin 1 receptor (OX1R; HCRTR1): Fluorescence-based cell-based high throughput dose response assay to identify antagonists of the parental CHO cell line. [Related pubchem assays (depositor defined):AID434989, AID435008, AID463079, AID485270, AID492963, AID492964, AID492965, AID493232, AID504699, AID504701]; assay type: functional
[13] = inhibitors of intracellular T. cruzi replication, confirmation, NIH3T3 host cells, beta-gal luminescence (AID 2044); assay type: functional, cell-based;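 note: intracellular parasites grown in NIH/3T3 mouse fibroblasts as host cells; luminescent beta-galactosidase reporter signal from transgenic T. cruzi replicating inside host cells; inhibitors lower the luminescence signal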
[14] = target: Coagulation factor XII (Homo sapiens, UniProt P00748); assay type: functional;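 note: activated factor XIIa alpha cleaving a fluorogenic AMC peptide substrate; inhibitor potency from loss of enzyme activity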
Coagulation factor XII, sequence (P00748 20-372 limits assumed): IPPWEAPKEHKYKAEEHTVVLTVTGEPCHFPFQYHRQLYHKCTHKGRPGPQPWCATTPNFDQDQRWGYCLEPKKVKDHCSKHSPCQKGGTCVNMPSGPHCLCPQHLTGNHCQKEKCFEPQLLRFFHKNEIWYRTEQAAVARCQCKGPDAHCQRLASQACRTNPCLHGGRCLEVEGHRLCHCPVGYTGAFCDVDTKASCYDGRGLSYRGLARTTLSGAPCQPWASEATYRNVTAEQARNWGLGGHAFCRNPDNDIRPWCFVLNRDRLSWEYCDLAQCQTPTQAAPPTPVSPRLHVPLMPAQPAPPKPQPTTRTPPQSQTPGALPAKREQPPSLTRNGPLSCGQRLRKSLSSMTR
Coagulation factor XII, sequence (P00748 373-615 limits assumed): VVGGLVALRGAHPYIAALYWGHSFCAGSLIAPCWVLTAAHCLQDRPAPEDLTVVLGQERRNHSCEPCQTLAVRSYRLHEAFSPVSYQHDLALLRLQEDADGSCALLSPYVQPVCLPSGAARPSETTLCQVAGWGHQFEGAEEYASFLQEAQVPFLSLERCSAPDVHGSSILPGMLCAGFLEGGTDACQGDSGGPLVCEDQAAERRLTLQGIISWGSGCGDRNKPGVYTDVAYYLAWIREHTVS

[15] = cytotoxicity toward NIH3T3 fibroblasts, dose response, counter-screen, cell-based, ATP luminescence, mouse fibroblasts (AID 2010); assay type: functional;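 note: cells exposed to compound for about 90 hours before reading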
[16] = cytotoxicity in MIN6 insulinoma cells, dose response, cytotoxicity control, cell-based, mouse insulinoma (AID 2122); assay type: functional;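 note: confirmatory high-throughput counterscreen run to flag cytotoxic compounds; mouse MIN-6 beta cells carrying an insulin promoter eGFP reporter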
[17] = target: T2, Alkaline phosphatase, tissue-nonspecific isozyme (Homo sapiens, UniProt P05186)
T2 sequence (P05186 whole entry): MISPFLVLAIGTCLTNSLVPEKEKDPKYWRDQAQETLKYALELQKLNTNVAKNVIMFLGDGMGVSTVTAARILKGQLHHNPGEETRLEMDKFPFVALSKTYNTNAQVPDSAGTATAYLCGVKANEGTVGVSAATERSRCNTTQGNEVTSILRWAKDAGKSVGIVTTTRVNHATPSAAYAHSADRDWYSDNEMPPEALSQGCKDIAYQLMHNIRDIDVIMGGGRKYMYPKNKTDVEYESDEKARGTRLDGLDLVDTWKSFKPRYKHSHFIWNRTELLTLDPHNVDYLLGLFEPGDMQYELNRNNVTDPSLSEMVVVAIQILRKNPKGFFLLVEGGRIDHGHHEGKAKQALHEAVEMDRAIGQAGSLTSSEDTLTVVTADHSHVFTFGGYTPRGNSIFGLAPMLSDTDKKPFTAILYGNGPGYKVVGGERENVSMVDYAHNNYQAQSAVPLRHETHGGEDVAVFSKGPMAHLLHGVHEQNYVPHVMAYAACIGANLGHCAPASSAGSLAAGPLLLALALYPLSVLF

[18] = target: T3, Polyadenylate-binding protein 1 (Homo sapiens, UniProt P11940); experiment: PABP1 MLLE–PAM2 binding inhibitor potency, dose response, biochemical, fluorescence polarization, FITC-PAM2 peptide (AID 602259); assay type: functional; conditions: read-out: IC50_Mean
T3 sequence (P11940 whole entry): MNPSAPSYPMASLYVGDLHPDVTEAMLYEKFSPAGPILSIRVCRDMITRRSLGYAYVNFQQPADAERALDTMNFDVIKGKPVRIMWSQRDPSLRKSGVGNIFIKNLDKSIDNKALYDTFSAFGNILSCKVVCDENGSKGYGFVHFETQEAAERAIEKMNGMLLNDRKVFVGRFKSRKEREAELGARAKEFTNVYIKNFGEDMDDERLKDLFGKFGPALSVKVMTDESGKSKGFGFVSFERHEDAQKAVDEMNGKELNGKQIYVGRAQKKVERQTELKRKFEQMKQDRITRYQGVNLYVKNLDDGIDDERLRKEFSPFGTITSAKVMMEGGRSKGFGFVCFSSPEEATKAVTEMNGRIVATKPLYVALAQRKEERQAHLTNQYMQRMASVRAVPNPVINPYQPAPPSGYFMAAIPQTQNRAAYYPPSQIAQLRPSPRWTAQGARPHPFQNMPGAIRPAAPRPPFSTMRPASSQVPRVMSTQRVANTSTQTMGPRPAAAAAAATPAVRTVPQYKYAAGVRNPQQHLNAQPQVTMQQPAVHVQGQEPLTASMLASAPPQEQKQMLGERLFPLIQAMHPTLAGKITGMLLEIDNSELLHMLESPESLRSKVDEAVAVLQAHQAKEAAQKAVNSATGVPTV

[19] = insulin promoter down-regulators in MIN6 cells, imaging, high-content screening, mouse beta cells (AID 1628); assay type: functional
[20] = target: T3, Polyadenylate-binding protein 1; experiment: PABP1 MLLE–PAM2 interaction inhibitors, dose response, miRNA deadenylation inhibitor project, biochemical, fluorescence polarization, Cy5-PAM2 peptide, secondary (AID 602260); assay type: functional; conditions: read-out: IC50_Mean
[21] = target: T4, Tyrosine-protein phosphatase non-receptor type 22 (Homo sapiens, UniProt Q9Y2R2); assay type: functional
T4 sequence (Q9Y2R2 whole entry): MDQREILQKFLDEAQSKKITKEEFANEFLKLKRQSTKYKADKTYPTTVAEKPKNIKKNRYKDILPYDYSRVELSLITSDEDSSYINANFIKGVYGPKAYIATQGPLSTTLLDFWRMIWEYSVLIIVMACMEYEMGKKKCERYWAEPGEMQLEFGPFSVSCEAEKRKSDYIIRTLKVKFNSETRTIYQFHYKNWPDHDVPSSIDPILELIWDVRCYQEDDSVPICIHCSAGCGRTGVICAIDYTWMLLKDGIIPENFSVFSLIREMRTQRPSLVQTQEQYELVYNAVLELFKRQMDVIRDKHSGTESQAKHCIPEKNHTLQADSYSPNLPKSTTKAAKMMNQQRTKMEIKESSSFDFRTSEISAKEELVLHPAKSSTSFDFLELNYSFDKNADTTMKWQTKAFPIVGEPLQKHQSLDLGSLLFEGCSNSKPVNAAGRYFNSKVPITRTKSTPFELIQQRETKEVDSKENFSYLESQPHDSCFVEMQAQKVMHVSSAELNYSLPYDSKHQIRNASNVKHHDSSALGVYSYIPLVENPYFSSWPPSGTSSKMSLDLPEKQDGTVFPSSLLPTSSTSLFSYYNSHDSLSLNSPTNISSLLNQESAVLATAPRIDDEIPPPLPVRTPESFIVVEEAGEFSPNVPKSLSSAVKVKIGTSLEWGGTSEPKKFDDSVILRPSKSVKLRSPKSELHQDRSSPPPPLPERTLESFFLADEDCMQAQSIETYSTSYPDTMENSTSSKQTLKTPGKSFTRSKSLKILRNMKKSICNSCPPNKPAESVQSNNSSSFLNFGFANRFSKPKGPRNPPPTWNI

[22] = target: T4, Tyrosine-protein phosphatase non-receptor type 22; assay type: functional; remark: listed apart in the source
[23] = target: T5, Tyrosine-protein phosphatase non-receptor type 7 (Homo sapiens, UniProt P35236); assay type: functional
T5 sequence (P35236 whole entry): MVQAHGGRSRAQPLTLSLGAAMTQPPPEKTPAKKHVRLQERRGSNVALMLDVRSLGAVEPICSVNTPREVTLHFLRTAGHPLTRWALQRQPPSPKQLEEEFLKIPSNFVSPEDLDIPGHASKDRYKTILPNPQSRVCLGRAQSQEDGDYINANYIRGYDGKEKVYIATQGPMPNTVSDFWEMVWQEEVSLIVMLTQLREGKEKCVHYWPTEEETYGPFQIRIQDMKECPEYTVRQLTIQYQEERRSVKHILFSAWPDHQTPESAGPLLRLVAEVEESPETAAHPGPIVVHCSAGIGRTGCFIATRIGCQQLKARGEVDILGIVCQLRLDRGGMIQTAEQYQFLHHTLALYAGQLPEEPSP

[24] = control 3'UTR Renilla luciferase suppression, dose response, counter-screen for Shn3 inhibitor project, cell-based, Clone20-Shn3RL, cherry-picked (AID 624133); assay type: functional
[25] = Shn3 3'UTR reporter inhibitors, dose response, cell-based, Clone20 osteoblasts, firefly luciferase, cherry-picked (AID 624132); assay type: functional;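 note: firefly luciferase luminescence from reporter carrying the Shn3 3'UTR in osteoblasts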
[26] = target: Protein Wnt-3a (Mus musculus, UniProt P27467); experiment: Wnt3a-driven reporter signaling inhibition, dose response, selectivity assay for Gli-SUFU antagonist project, Wnt-LIGHT cells, luminescence (AID 651570); assay type: functional; conditions: read-out: IC50_Mean;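 note: Wnt-LIGHT reporter cells stimulated with conditioned medium from Wnt3a-producing cells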
Protein Wnt-3a, sequence (P27467 whole entry): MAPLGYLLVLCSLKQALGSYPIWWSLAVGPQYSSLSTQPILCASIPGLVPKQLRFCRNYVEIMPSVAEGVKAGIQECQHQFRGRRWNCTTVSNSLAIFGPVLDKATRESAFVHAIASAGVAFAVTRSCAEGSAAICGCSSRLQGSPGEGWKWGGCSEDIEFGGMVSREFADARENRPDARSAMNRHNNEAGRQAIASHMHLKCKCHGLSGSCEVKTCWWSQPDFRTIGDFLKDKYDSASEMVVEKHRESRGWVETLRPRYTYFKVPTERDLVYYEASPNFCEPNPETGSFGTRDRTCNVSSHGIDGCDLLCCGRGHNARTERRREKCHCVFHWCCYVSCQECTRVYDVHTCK

[27] = HepG2 cell cytotoxicity, dose response, cytotoxicity control for Shn3 inhibitor project, CellTiter-Glo, cherry-picked (AID 624134); assay type: functional, cell-based
[28] = target: Cytochrome P450 2C9 (Homo sapiens, UniProt P11712)
Cytochrome P450 2C9, sequence (P11712 whole entry): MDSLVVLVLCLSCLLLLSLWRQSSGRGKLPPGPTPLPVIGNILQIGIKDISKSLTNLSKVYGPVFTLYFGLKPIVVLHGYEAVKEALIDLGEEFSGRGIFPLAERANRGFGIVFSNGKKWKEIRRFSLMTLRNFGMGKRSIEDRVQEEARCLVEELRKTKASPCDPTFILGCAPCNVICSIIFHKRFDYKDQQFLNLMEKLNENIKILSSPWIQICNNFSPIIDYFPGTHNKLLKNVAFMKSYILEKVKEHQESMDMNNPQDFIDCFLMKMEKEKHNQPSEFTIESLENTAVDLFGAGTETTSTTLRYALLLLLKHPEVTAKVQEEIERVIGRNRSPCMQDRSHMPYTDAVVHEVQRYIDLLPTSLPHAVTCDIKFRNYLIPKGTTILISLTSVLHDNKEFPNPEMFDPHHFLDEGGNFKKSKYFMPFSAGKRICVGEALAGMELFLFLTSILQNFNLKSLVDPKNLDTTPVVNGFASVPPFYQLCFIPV

[29] = cells; assay type: functional, cell-based
[30] = target: FAD-linked sulfhydryl oxidase ALR (Homo sapiens, UniProt P55789); experiment: inhibitors of human ALR sulfhydryl oxidase, dose response, biochemical, H2O2 detection, luminescence, cherry-pick (AID 493248)
FAD-linked sulfhydryl oxidase ALR, sequence (P55789 whole entry): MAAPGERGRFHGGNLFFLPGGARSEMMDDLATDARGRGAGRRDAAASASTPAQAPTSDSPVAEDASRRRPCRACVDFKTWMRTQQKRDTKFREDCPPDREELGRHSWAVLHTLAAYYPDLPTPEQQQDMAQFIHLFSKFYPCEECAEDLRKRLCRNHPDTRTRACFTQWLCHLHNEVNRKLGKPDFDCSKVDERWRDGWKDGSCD

[31] = cells; assay type: functional, cell-based; remark: listed apart in the source
[32] = target: Cytochrome P450 2C19 (Homo sapiens, UniProt P33261); experiment: Cytochrome panel assay with activity outcomes. Panel member name: p450-cyp2c19 Compounds with AC50 equal or less than 10 uM are considered active; assay type: functional; conditions: read-out: AC50
Cytochrome P450 2C19, sequence (P33261 whole entry): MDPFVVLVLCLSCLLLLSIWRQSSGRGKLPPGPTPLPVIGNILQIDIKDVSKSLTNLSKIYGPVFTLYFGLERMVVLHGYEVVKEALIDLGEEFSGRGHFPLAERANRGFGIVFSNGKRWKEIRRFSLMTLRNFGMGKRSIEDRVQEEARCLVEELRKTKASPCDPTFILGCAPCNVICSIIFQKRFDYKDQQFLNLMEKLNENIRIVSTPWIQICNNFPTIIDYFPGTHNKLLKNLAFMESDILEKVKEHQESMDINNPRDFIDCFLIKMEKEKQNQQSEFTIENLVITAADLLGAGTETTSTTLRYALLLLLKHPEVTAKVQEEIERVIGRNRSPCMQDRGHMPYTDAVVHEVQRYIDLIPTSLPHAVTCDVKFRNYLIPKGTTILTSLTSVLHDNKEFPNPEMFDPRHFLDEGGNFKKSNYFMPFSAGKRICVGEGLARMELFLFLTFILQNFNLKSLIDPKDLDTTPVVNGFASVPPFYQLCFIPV

[33] = target: Cytochrome P450 2D6 (Homo sapiens, UniProt P10635);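 note: CYP2D6 member of a cytochrome P450 panel assay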
Cytochrome P450 2D6, sequence (P10635 whole entry): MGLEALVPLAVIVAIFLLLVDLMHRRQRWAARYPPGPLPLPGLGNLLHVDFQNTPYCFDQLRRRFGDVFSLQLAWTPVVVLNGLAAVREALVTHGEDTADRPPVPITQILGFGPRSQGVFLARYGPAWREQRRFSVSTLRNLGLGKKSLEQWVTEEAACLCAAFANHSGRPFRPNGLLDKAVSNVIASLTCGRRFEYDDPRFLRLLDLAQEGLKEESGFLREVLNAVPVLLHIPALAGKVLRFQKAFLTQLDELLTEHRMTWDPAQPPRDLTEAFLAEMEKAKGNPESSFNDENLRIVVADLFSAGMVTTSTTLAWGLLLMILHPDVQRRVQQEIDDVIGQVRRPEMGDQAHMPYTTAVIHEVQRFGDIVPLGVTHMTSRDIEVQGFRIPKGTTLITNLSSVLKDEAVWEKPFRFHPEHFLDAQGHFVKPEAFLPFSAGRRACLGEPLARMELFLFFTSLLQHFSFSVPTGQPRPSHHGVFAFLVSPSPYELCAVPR

5-hydroxytryptamine receptor 5A, sequence (P47898 whole entry): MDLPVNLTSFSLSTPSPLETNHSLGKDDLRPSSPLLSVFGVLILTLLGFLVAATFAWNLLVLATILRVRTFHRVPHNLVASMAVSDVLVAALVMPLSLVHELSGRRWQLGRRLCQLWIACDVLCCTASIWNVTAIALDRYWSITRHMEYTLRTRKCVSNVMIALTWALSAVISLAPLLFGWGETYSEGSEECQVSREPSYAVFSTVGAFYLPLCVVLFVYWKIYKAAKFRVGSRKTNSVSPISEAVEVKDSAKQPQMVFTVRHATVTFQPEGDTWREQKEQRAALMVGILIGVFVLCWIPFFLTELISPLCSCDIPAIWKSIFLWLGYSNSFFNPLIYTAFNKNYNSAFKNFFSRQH

O=C(NCCc1ccc(Cl)cc1)C1CCC(CNc2nc(=S)[nH]c3ccccc23)CC1 (configuration not stated)
EC50 [1]: > 92.5 µM (inactive)
EC50 [2]: > 92.5 µM (inactive)
EC50 [3]: > 92.5 µM (inactive)

Cc1oc(=O)c(NC(=O)c2cccc(Cl)c2)cc1C(=O)c1ccccc1
AC50 [4]: 26 µM (active)
AC50 [5]: 16.4 µM (active)
EC50 [6]: 90.8 µM (active)
AC50 [7]: 21.7 µM (active)
EC50 [8]: 6.62 µM (active)

C[C@@H]1CN([C@@H](C)CO)C(=O)c2cccc(NC(=O)Nc3ccc(F)cc3)c2O[C@@H]1CN(C)Cc1ccc(Oc2ccccc2)cc1
IC50 [9]: > 66.2 µM (inactive)
IC50 [10]: 11.2 µM (inactive)
IC50 [11]: > 66.2 µM (inactive)
IC50 [12]: 23.7 µM (inactive)

COc1ccc(CN2CCN(C(=O)C3CCC(CNS(=O)(=O)c4ccccc4)CC3)CC2)c(OC)c1OC (configuration not stated)
EC50 [13]: 0.503 µM (active)
IC50 [14]: > 50 µM (inactive)
EC50 [15]: > 60 µM (not active)

COCCNC(=S)N/N=C(\C)c1ccccc1O
IC50 [16]: 1.01 µM (active)
EC50 [17]: 70.7 µM (not active)
IC50 [18]: > 66 µM (inactive)
IC50 [19]: 2.44 µM (active)
IC50 [20]: > 66 µM (inactive)

CCOC(=O)CC1(NC(=O)c2cc(COc3cncc(Cl)c3)on2)CCCCC1
IC50 [21]: > 79.4 µM (inactive)
IC50 [22]: > 79.4 µM (inactive)
IC50 [23]: > 79.4 µM (inactive)

CCc1c(C)nc2ncnn2c1N1CCN(S(=O)(=O)c2ccc(OC)cc2)CC1
IC50 [16]: 0.936 µM (active)
AC50 [24]: 3.52 µM (active)
AC50 [25]: 1.16 µM (active)
IC50 [26]: 5.74 µM (active)
IC50 [19]: 1.35 µM (active)
AC50 [27]: 5.28 µM (active)

Cc1ccc(/C=N\Nc2nc3cc(Cl)ccc3[nH]2)o1
AC50 [28]: 7.08 µM (inconclusive)
EC50 [29]: > 350 µM (not active)
AC50 [30]: 0.289 µM (active)
EC50 [31]: 27.6 µM (active)
AC50 [32]: 28.2 µM (inconclusive)
IC50 [14]: > 50 µM (inactive)

C[N+]1(CCC(=O)c2ccco2)C[C@H]2CC[C@H](CC2)C1 (some centres not stated)
AC50 [33]: inconclusive

Cc1ccsc1/C=C1/SC(=O)N(CC(=O)N2CCOCC2)C1=O
AC50 [33]: inconclusive

Reference: ChEMBL document CHEMBL1201862, “PubChem BioAssay data set” (2004)
